# In patent publication US5298508A, “Irreversible inhibitors of adenosine receptors” (priority 1992, dated 1994):
# Molecular target: T1, A1 adenosine receptors (Rattus norvegicus, UniProt P25099)
# T1 construct: A1 adenosine receptors in rat cerebral cortex membranes; from tissue; host or cells: rat cerebral cortex membranes
# T1 sequence (P25099 1-326): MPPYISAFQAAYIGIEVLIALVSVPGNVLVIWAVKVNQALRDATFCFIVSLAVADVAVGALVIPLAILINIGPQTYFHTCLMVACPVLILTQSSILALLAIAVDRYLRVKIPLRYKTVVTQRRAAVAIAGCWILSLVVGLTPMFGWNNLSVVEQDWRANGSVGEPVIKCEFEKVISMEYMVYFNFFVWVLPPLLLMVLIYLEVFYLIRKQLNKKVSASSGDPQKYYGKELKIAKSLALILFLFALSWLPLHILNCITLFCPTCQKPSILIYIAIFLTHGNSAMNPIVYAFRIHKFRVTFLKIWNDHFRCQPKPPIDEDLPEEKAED
# Test: inhibition of binding of [3H]N6-phenylisopropyladenosine ([3H]PIA) to A1 adenosine receptors in rat cerebral cortex membranes
# Settings: Table I, rat, against [3H]PIA; read-out: Ki at central A1 receptors, rat
# Procedure: Ukena et al., FEBS Letters 209;122, 1986.
# For the biochemical assays, stock solutions of xanthines in the millimolar concentration range in dimethylsulfoxide were prepared and stored frozen. The solutions were warmed to 50° C. prior to dilution in aqueous medium. […] Acad. Sci. USA, 83:4089, 1986. Inhibition of binding by a range of concentrations of a xanthine or adenosine derivative was assessed in triplicate in at least three separate experiments.
row,Ki [nM],SMILES
1,16 ± 2.9,CCCn1c(=O)c2[nH]c(-c3ccc(OCC(=O)NCCNC(=S)Nc4ccc(C)cc4)cc3)nc2n(CCC)c1=O [Compound 6]
2,20,CCCn1c(=O)c2nc(-c3ccc(OCC(=O)NCCN=C(S)Nc4ccc(OC)cc4)cc3)[nH]c2n(CCC)c1=O [Compound 7]
3,9.07 ± 0.9,CCCn1c(=O)c2[nH]c(-c3ccc(OCC(=O)NCCNC(=S)Nc4c(F)c(F)c(F)c(F)c4F)cc3)nc2n(CCC)c1=O [Compound 9]
4,7.26 ± 0.9,CCCn1c(=O)c2[nH]c(-c3ccc(OCC(=O)NCCNC(=S)Nc4ccc(Br)cc4)cc3)nc2n(CCC)c1=O [Compound 10]
5,72 ± 7.2,CCCn1c(=O)c2[nH]c(-c3ccc(OCC(=O)NCCNS(=O)(=O)c4ccc(C)cc4)cc3)nc2n(CCC)c1=O [Compound 14]
6,53 ± 12,CCCn1c(=O)c2[nH]c(-c3ccc(OCC(=O)NCCNC(=O)Cc4ccc(NC(=O)OC(C)(C)C)cc4)cc3)nc2n(CCC)c1=O [Compound 15c]
7,40,CCCn1c(=O)c2[nH]c(-c3ccc(OCC(=O)NCCNC(=O)Cc4ccc(N)cc4)cc3)nc2n(CCC)c1=O [Compound 15d]
8,17.6 ± 1.5,"CCCn1c(=O)c2[nH]c(-c3ccc(OCC(=O)NCCNC(=O)CBr)cc3)nc2n(CCC)c1=O [Compound 18, 8-[2-[4-bromoacetylaminoethyl[amino[carbonyl[methyloxyphenyl]]]]]-1,3-dipropylxanthine]"
9,23.8 ± 3.51,CCCn1c(=O)c2[nH]c(-c3ccc(OCC(=O)NCCNC(=O)CCSSc4ccccn4)cc3)nc2n(CCC)c1=O [Compound 22]

# Same assay, conditions: Table II, rat, against [3H]PIA; read-out: Ki at central A1 receptors, rat
row,Ki [nM],SMILES
1,8.37 ± 0.73,O=C(Cc1ccc(Nc2ncnc3c2ncn3[C@@H]2O[C@H](CO)[C@@H](O)[C@H]2O)cc1)ON1C(=O)CCC1=O [Compound 24]

# Same assay, conditions: read-out: Ki at central A1 receptors, rat
row,Ki [nM],SMILES
1,12.8,CCCn1c(=O)c2nc(-c3ccc(OCC(=O)NCCN=C(S)Nc4ccc(F)cc4)cc3)[nH]c2n(CCC)c1=O [Compound 8]
2,5,CCCn1c(=O)c2nc(-c3ccc(OCC(=O)NCCN=C(S)Nc4ccc([N+](=O)[O-])cc4)cc3)[nH]c2n(CCC)c1=O [Compound 11]
3,430,CCCn1c(=O)c2nc(-c3ccc(OCC(=O)NCCN=C(S)Nc4ccc(S(=O)(=O)O)cc4)cc3)[nH]c2n(CCC)c1=O [Compound 12]
4,63,CCCn1c(=O)c2nc(-c3ccc(OCC(=O)NCCNC(=O)CCCN4C(=O)C=CC4=O)cc3)[nH]c2n(CCC)c1=O [Compound 23]
5,9.6 ± 1.44,O=C(Cc1ccc(Nc2ncnc3c2ncn3[C@@H]2O[C@H](CO)[C@@H](O)[C@H]2O)cc1)Nc1ccc(CC(=O)ON2C(=O)CCC2=O)cc1 [Compound 25]
6,3.72 ± 0.44,Cc1ccc(NC(=S)NCCNC(=O)Cc2ccc(NC(=O)Cc3ccc(Nc4ncnc5c4ncn5[C@@H]4O[C@H](CO)[C@@H](O)[C@H]4O)cc3)cc2)cc1 [Compound 29]
7,5,COc1ccc(NC(=S)NCCNC(=O)Cc2ccc(NC(=O)Cc3ccc(Nc4ncnc5c4ncn5[C@@H]4O[C@H](CO)[C@@H](O)[C@H]4O)cc3)cc2)cc1 [Compound 30]
8,5,O=C(Cc1ccc(NC(=O)Cc2ccc(Nc3ncnc4c3ncn4[C@@H]3O[C@H](CO)[C@@H](O)[C@H]3O)cc2)cc1)NCCNC(=S)Nc1ccc(F)cc1 [Compound 31a]
9,10.7,O=C(Cc1ccc(NC(=O)Cc2ccc(Nc3ncnc4c3ncn4[C@@H]3O[C@H](CO)[C@@H](O)[C@H]3O)cc2)cc1)NCCNC(=S)Nc1ccccc1F [Compound 31b]
10,1.64 ± 0.47,O=C(Cc1ccc(NC(=O)Cc2ccc(Nc3ncnc4c3ncn4[C@@H]3O[C@H](CO)[C@@H](O)[C@H]3O)cc2)cc1)NCCNC(=S)Nc1c(F)c(F)c(F)c(F)c1F [Compound 32]
11,1.19 ± 0.14,O=C(Cc1ccc(NC(=O)Cc2ccc(Nc3ncnc4c3ncn4[C@@H]3O[C@H](CO)[C@@H](O)[C@H]3O)cc2)cc1)NCCNC(=S)Nc1ccc(Br)cc1 [Compound 33]
12,1,O=C(Cc1ccc(NC(=O)Cc2ccc(Nc3ncnc4c3ncn4[C@@H]3O[C@H](CO)[C@@H](O)[C@H]3O)cc2)cc1)NCCNC(=S)Nc1ccc([N+](=O)[O-])cc1 [Compound 34]
